Measurements as given in patent publication US20140041064A1, “COMPOSITIONS AND METHODS FOR I[…] FACTORS AND ANTI-FUNGAL AGENTS” (WORCESTER POLYTECHNIC INSTITUTE, priority 2011, published 2014).

Experiments:
[1] = tested on: Macrophage cell line RAW 264.7; settings: 0.05 μM DPI; RAW 264.7 macrophages co-cultured overnight with wild type, cap1Δ/Δ and CAP1-complemented C. albicans (1:15)
Description: Macrophage cell line RAW 264.7 (ATCC) was used in the assay. The cell line was maintained in DMEM supplemented with 10% fetal bovine serum (FBS). […] Briefly, macrophages on reaching 80-90% confluence were scraped and brought up in DMEM supplemented with 10% FBS and 100 U/ml penicillin and 100 μg/ml streptomycin. 2×10^6 macrophage cells were plated in a 35 mm^2 plate and allowed to adhere for 5 hours. Candida strains were grown overnight at 37° C., diluted 1:10, and allowed to grow for another 5 hours. Candida cells were then washed with supplemented DMEM and were added to the plates containing macrophages in a ratio of 1:15 macrophage and to a final volume of 2 ml. Yeast strain was also grown in parallel without macrophages to calculate % survival. The plates were incubated overnight at 37° C. and 5% CO2. Cells were then brought up to 24 mls in a tube using 0.05% Triton X-100 (v/v) in water to osmotically lyse the macrophage cells. Dilutions were prepared and plated on a YPD plate and grown overnight at 37° C. Colony forming units (CFU) were counted and percentage survival was calculated by taking the ratio of CFU from co culture of Candida and macrophage to the CFU obtained for Candida alone.
Experiments involving diphenyleneiodium chloride (DPI) were performed as mentioned above but with the addition of 0.05 μM DPI from a 31.8 mM stock solution in DMSO. […]

C. albicans = settings: hydrogen peroxide at a final concentration of 2 mM; 20° C., 30° C. and 37° C.
Description: In vitro, Cap1 regulates the response to oxidative stress, which is a key component of the innate immune response to fungi (Alarco et al., J. Bacteriol. 181:700-708.3, 1999); Enjalbert et al., Mol. Biol. Cell. 17:1018-1032, 2006; Wang et al., Free Radic. Biol. Med. 40:1201-1209, 2006; Zhang et al., Mol. Microbiol. 36:618-629, 2000) and is induced in the presence of neutrophils (Fradin et al., Mol. Microbiol. 56:397-415, 2005). To correlate these studies performed at 30° C. and 37° C., respectively, with our in vivo infection performed at 20° C., we compared the ROS sensitivity profiles of cap1Δ/Δ, CAP1-complemented and the cognate wild type strain at 20° C., 30° C. and 37° C.

Row | Structure (SMILES) | CFUs of C. albicans recovered from macrophages [1] | growth of CAP1-complemented strain (C. albicans) | growth of reconstructed cap1Δ mutant (C. albicans)
1 | c1ccc2c(c1)[I+]c1ccccc1-2 [DPI, Diphenyleneiodonium chloride] | no difference in CFUs recovered from macrophages between the three strains |  | 
2 | OO [hydrogen peroxide] |  | same growth as the wild type | failed to grow
